Measurements reported in the C3SDB collision cross section collection.
Where “and” joins values, the source holds several entries; their conditions need not be identical. Equal entries are not always repeated.

Conditions: instrument: TW, calibrated with polyalanine and drug standards

COC(=O)C[C@H]1C2(C)CC34OC5(C)O[C@@]6([C@H](OC)C(OC(=O)C(C)C)[C@]7(C)C(/C(=C(/OC)C(C)C)C(=O)O[C@H]7c7ccoc7)[C@@]6(O5)[C@H](OC)[C@@]3(OC)C2OC(C)=O)[C@]14C (stereo partly drawn) [CHUKRASIN METHYL ETHER]
collision cross section (N2) ([M+H-H2O]+): 254.2 Å²

CN=C(NC#N)NCCSCc1nc[nH]c1C [CIMETIDINE]
collision cross section (N2) ([M+H]+): 155.7 Å²

C=C[C@H]1CN2CC[C@H]1C[C@@H]2[C@@H](O)c1ccnc2ccccc12 [CINCHONINE]
collision cross section (N2) ([M+H]+): 166.3 Å²

O=C(O)c1cn(C2CC2)c2cc(N3CCNCC3)c(F)cc2c1=O [CIPROFLOXACIN]
collision cross section (N2) ([M+H]+): 185.3 Å² and 173.3 Å²

CN(C)CCCC1(c2ccc(F)cc2)OCc2cc(C#N)ccc21 (stereo not drawn) [CITALOPRAM]
collision cross section (N2) ([M+H]+): 178.9 Å²

CC1=C2C(=CO[C@H](C)[C@H]2C)C(=O)C(C(=O)O)=C1O [CITRININ]
collision cross section (N2) ([M+H]+): 150.2 Å²

CC(C)(Oc1ccc(Cl)cc1)C(=O)O [CLOFIBRIC ACID]
collision cross section (N2) ([M+H]+): 146.6 Å²

C=C[C@@]1(C)CC(=O)[C@]2(O)[C@@]3(C)[C@@H](O)CCC(C)(C)[C@@H]3[C@H](O)[C@H](OC(C)=O)[C@@]2(C)O1 [COLFORSIN]
collision cross section (N2) ([M+Na]+): 191.9 Å²

COC(=O)[C@H]1[C@H]2C[C@H]3c4[nH]c5ccccc5c4CCN3C[C@@H]2CC[C@@H]1O [CORYNANTHINE]
collision cross section (N2) ([M+H]+): 186 Å²

C[C@H]1COC2=C1C(=O)C(=O)c1c2ccc2c1CCCC2(C)C [CRYPTOTANSHINONE]
collision cross section (N2) ([M+H]+): 168 Å²

COc1cc2c(cc1OC)Cc1cc(OC)c(OC)cc1Cc1cc(OC)c(OC)cc1C2 [CYCLOVERATRYLENE]
collision cross section (N2) ([M+H]+): 213.9 Å²

CC1(C)C(C=C(Cl)Cl)C1C(=O)OC(C#N)c1cccc(Oc2ccccc2)c1 (stereo not drawn) [CYPERMETHRIN]
collision cross section (N2) ([M+Na]+): 200.6 Å²

CC1(C)C(=O)C=C[C@@]2(C)C1CC(=O)[C@]1(C)C2CC[C@@]2(C)[C@H](c3ccoc3)OC(=O)[C@H]3O[C@]321 (stereo partly drawn) [DEACETOXY-7-OXOGEDUNIN]
collision cross section (N2) ([M+H]+): 196.6 Å²

Cc1c(O)c(=O)ccn1C [DEFERIPRONE]
collision cross section (N2) ([M+H]+): 123.2 Å²

CC(C)c1ccc2c(c1)CCC1C(C)(C(N)=O)CCCC21C (stereo not drawn) [DEHYDROABIETAMIDE]
collision cross section (N2) ([M+H]+): 181.1 Å²

C[C@H](CCC(=O)O)[C@H]1CC[C@H]2[C@@H]3CC[C@@H]4C[C@H](O)CC[C@]4(C)[C@H]3C[C@H](O)[C@]12C [DEOXYCHOLIC ACID]
collision cross section (N2) ([M+Na]+): 196.7 Å²

COc1ccc2c(c1)OCC(Cc1ccc(OC)c(OC(C)=O)c1)C2=O (stereo not drawn) [DEOXYSAPPANONE B 7,3'-DIMETHYL ETHER ACETATE]
collision cross section (N2) ([M+H]+): 177.9 Å²

COc1ccc2c(c1)OCC(Cc1ccc(OC)c(OC)c1)C2=O (stereo not drawn) [DEOXYSAPPANONE B TRIMETHYL ETHER]
collision cross section (N2) ([M+H]+): 176.6 Å²

CC(C)(CO)[C@@H](O)C(=O)NCCCO [DEXPANTHENOL]
collision cross section (N2) ([M+H]+): 144.1 Å²

CC(=O)Nc1ccc(OC(C)=O)cc1 [DIACETAMATE]
collision cross section (N2) ([M+H]+): 143.1 Å²

CC(=O)Nc1c(I)c(NC(C)=O)c(I)c(C(=O)O)c1I [DIATRIZOIC ACID]
collision cross section (N2) ([M+H]+): 176.3 Å²

Oc1ccc(Cl)cc1Cc1cc(Cl)ccc1O [DICHLOROPHENE]
collision cross section (N2) ([M+H]+): 147.4 Å²

O=c1oc2ccccc2c(O)c1Cc1c(O)c2ccccc2oc1=O [DICUMAROL]
collision cross section (N2) ([M+H]+): 182 Å²

CCN(CC)C(=O)c1cccc(C)c1 [DIETHYLTOLUAMIDE]
collision cross section (N2) ([M+H]+): 143.2 Å²

CC(=O)OCC(=O)[C@@]1(OC(C)=O)[C@@H](C)C[C@H]2[C@@H]3C[C@H](F)C4=CC(=O)C=C[C@]4(C)[C@@]3(F)[C@@H](O)C[C@@]21C [DIFLORASONE DIACETATE]
collision cross section (N2) ([M+H]+): 209.5 Å²

COc1cc(OC)c(-c2c(OC)cc(OC)cc2OC)c(OC)c1 [DIFUCOL HEXAMETHYL ETHER]
collision cross section (N2) ([M+H]+): 175.2 Å²

C[C@]12CC[C@H](O)C[C@H]1CC[C@@H]1[C@@H]2C[C@@H](O)[C@]2(C)[C@@H](C3=CC(=O)OC3)CC[C@]12O [DIGOXIGENIN]
collision cross section (N2) ([M+H]+): 195.1 Å²

C[C@H]1O[C@@H](O[C@H]2[C@@H](O)C[C@H](O[C@H]3[C@@H](O)C[C@H](O[C@H]4CC[C@@]5(C)[C@H](CC[C@@H]6[C@@H]5C[C@@H](O)[C@]5(C)[C@@H](C7=CC(=O)OC7)CC[C@]65O)C4)O[C@@H]3C)O[C@@H]2C)C[C@H](O)[C@@H]1O [DIGOXIN]
collision cross section (N2) ([M+H]+): 322.5 Å²

CC(=O)Oc1cc2c(c(C)c1OC(C)=O)CC=C1[C@@]2(C)CC[C@@]2(C)C3C[C@](C)(C(=O)O)CC[C@]3(C)CC[C@]12C (stereo partly drawn) [DIHYDROCELASTRYL DIACETATE]
collision cross section (N2) ([M+Na]+): 219.7 Å²

COC(=O)[C@@H]1OC(=O)C2OC23[C@@]1(C)CCC1[C@@]2(C)CCC(=O)C(C)(C)C2C[C@@H](OC(C)=O)[C@]13C (stereo partly drawn) [DIHYDROGEDUNIC ACID, METHYL ESTER]
collision cross section (N2) ([M+Na]+): 216.6 Å²

C[C@@H]1CC[C@@]2(OC1)O[C@H]1C[C@H]3[C@@H]4CC=C5C[C@@H](O)CC[C@]5(C)[C@H]4CC[C@]3(C)[C@H]1[C@@H]2C [DIOSGENIN]
collision cross section (N2) ([M+H]+): 208.4 Å²

CC[C@H]1OC(=O)[C@H](C)[C@@H](O[C@H]2C[C@@](C)(OC)[C@@H](O)[C@H](C)O2)[C@H](C)[C@@H](O[C@@H]2O[C@H](C)C[C@H](N(C)C)[C@H]2O)[C@](C)(O)C[C@@H](C)[C@@H]2N[C@@H](COCCOC)O[C@H]([C@H]2C)[C@]1(C)O [DIRITHROMYCIN]
collision cross section (N2) ([M+H]+): 284.2 Å²

O=c1[nH]c2ccccc2n1CCCN1CCC(n2c(=O)[nH]c3cc(Cl)ccc32)CC1 [DOMPERIDONE]
collision cross section (N2) ([M+H]+): 201.8 Å²
